pIC50: −log10 of the molar value.
Each compound was assayed against Human immunodeficiency virus type 1 integrase (Human immunodeficiency virus 1, UniProt Q7ZJM1) (assay: Inhibition of HIV1 integrase strand transfer activity after 1 hr).
Chain of Human immunodeficiency virus type 1 integrase (Q7ZJM1 whole entry): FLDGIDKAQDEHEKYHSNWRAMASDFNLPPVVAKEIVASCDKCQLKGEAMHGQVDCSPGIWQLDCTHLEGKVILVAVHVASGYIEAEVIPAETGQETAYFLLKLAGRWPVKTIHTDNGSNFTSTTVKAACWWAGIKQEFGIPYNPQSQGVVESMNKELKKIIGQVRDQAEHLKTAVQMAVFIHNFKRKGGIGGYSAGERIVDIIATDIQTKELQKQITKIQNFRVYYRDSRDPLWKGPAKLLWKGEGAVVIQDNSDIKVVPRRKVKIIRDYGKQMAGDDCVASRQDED

| SMILES | pIC50 |
| --- | --- |
| O=C(NCCCN1CCN(C(=O)/C=C/c2ccccc2[N+](=O)[O-])CC1)c1cc(O)c(O)c(O)c1 | 4.50 |
| O=C(NCCCN1CCN(C(=O)/C=C/c2cccc(O)c2)CC1)c1ccc(O)c(O)c1 | < 4.00 |
| O=C(NCCCN1CCN(C(=O)/C=C/c2ccc(Cl)cc2)CC1)c1cc(O)c(O)c(O)c1 | 4.60 |
| O=C(NCCCN1CCN(C(=O)/C=C/c2ccc(Cl)cc2)CC1)c1ccc(O)c(O)c1 | < 4.00 |
| O=C(NCCCN1CCN(C(=O)/C=C/c2ccccc2)CC1)c1ccc(O)c(O)c1 | < 4.00 |
| O=C(NCCCN1CCN(C(=O)/C=C/c2ccccc2Cl)CC1)c1ccc(O)c(O)c1 | < 4.00 |
| Cc1ccc(/C=C/C(=O)N2CCN(CCCNC(=O)c3ccc(O)c(O)c3)CC2)cc1 | < 4.00 |

The next compounds have a higher pIC50 than those just listed; values first:

| pIC50 | SMILES |
| --- | --- |
| 4.72 | O=C(NCCCN1CCN(C(=O)/C=C/c2ccccc2Cl)CC1)c1cc(O)c(O)c(O)c1 |
| 4.76 | Cc1ccc(/C=C/C(=O)N2CCN(CCCNC(=O)c3cc(O)c(O)c(O)c3)CC2)cc1 |
| 4.81 | O=C(NCCCN1CCN(C(=O)/C=C/c2cccc(O)c2)CC1)c1cc(O)c(O)c(O)c1 |
| 4.89 | O=C(NCCCN1CCN(C(=O)/C=C/c2ccccc2)CC1)c1cc(O)c(O)c(O)c1 |
| 6.11 | O=C(O)C(=O)CC(=O)c1cc(OCc2ccccc2)cc(OCc2ccccc2)c1 |
